We go through 1 molecule from paper PMC5259791 (Scientific Reports, 2017).

In one assay the target is T1, PPARγ1 (Homo sapiens, UniProt P37231).
T1 construct: from a transfected PCDNA-3 vector carrying a complete PPARγ cDNA; expressed in transfected cells
T1 sequence (P37231 1-477 isoform P37231-2): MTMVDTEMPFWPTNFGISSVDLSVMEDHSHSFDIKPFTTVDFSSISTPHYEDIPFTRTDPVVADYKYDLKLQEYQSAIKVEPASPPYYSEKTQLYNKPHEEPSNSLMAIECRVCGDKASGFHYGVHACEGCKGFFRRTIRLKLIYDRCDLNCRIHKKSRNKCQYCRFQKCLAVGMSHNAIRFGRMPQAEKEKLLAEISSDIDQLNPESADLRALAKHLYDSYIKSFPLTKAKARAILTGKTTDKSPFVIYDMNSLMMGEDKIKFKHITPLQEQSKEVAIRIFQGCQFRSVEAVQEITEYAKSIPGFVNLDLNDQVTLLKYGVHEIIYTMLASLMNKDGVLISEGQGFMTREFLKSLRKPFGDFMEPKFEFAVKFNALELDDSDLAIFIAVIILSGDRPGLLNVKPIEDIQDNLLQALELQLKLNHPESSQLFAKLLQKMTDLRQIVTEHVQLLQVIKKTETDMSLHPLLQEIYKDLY
The assay can be described thus: PPRE-luciferase transactivation in HEK293 cells stably expressing exogenous PPARγ. The class given is cell-based. An excerpt:
These cells were selected as they express a fixed and known amount of PPARγ, so that the differences in luciferase activity can be ascribed to the different ligand used. […] (b) Human HEK293T cells were co-transfected with the PPRE-luciferase reporter gene and the wild-type PPARγ1 or its mutant version (C285A).
HEK293 cells that stably express an exogenous Flag-tagged PPARγ from a transfected PCDNA-3 vector carrying a complete PPARγ cDNA were used for transfection experiments. The PPRE-Luc plasmid contains a luciferase reporter gene under the transcriptional control of three copies of the PPRE (Peroxisome Proliferator Response Element) derived from Acyl-CoA oxidase gene fused upstream to the herpes simplex thymidine kinase (TK) promoter, as described. […] Transient transfection assays were carried out as described in ref. [44]. […] In this case, the experiments were carried out into basal HEK293T cells and the RSV-β-Gal plasmid was used as control for transfection efficiency. […] The wild type and mutant PPARγ containing expression vectors were kindly provided by Dott. Takuma Shiraki. At least three independent experiments were performed for each transfection carried out in duplicate. Luciferase activity was normalized to β-galactosidase activity and reported as fold-induction.

The next assay deals with T2, PPARδ (Homo sapiens, UniProt Q03181).
T2 construct: purchased Tebu-Bio
T2 sequence (Q03181 1-441): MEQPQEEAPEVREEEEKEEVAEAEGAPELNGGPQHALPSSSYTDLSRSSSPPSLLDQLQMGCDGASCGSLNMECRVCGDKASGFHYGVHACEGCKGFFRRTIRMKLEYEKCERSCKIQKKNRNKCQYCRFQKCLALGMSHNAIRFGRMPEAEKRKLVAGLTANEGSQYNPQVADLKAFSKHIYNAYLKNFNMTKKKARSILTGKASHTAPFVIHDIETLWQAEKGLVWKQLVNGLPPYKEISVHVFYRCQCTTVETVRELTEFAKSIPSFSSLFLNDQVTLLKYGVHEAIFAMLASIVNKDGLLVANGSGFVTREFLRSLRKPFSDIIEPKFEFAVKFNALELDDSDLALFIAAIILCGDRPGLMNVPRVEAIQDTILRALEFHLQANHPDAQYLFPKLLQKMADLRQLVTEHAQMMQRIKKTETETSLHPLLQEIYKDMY
The assay can be described thus: SPR on immobilized PPARδ. The class given is binding. As for the experimental part: In order to evaluate if 1 acts as a selective ligand of PPARγ, SPR analyses were also carried out on immobilized PPARα and PPARδ, two proteins structurally and functionally related to PPARγ[23][24].
(§1) SPR analyses were carried out on a BIACORE 3000 instrument (GE-Healthcare). PPARα, PPARγ, PPARδ and HSP60 surfaces were prepared on research−grade CM5 sensor chips (GE Healthcare). Proteins (100 μg/ml in 10 mM CH3COONa, pH 5.0) were immobilized using a standard amine−coupling protocol, to obtain densities of 3–5 kRU. Testing compounds were dissolved in 100% DMSO to obtain 4 mM solutions, and then diluted in PBS containing variable amounts of DMSO, achieving a final DMSO concentration of 0.1%. For each molecule a five−point concentration series (25 nM, 65 nM, 150 nM, 400 nM, 1 μM) was set up. SPR experiments and data elaboration were carried out as reported elsewhere.

In a further assay the target is T3, PPARγ LBD (Homo sapiens, UniProt P37231).
T3 construct: Recombinant human PPARγ-LBD, consisting of the region 195–477 of PPARγ; purchased Bertin-Pharma
T3 sequence (P37231 195-477 isoform P37231-2): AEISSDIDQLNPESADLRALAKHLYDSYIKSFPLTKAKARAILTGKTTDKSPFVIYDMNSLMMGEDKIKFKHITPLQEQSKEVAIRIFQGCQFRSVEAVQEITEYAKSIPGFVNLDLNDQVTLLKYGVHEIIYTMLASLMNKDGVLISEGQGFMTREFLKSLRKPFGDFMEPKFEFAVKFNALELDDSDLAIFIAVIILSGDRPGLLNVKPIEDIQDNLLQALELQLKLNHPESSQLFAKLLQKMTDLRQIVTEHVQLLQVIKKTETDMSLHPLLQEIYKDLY
The assay can be described thus: SPR on immobilized PPARγ LBD. Type of assay: binding. As for the experimental part: Conversely, no affinity of the diterpene towards Hsp60 was observed (Fig. 2c).
as §1

As to `C=C1C(=O)C23CCC4C(C(=O)OC)CC(O)CC4(C)C2CCC1C3` (stereo not drawn) [Compound 1, 15-ketoatractyligenin methyl ester], at PPARγ1 (0.001% Tween 20 in the medium), the “effect of detergent on transactivation activity profile” value is “not find any variation in the bell-shaped activity profile”. In addition, the “concentration at peak of luciferase activity” value at PPARγ1 (24 h treatment, HEK293 stably expressing PPARγ) turned out to be 1 µM. Besides, the “transactivation activity lower than Rosiglitazone” value on PPARγ1 (24 h treatment, relative to Rosiglitazone) is “about 40%”. At PPARγ1 (transactivation assay), the “type of PPARγ agonism” value is recorded as “partial agonist”. Besides, the “binding to PPARδ” value on PPARδ was “no significant binding”. Moreover, binding at PPARγ LBD was characterised by a dissociation constant (Kd) of 39.2 ± 3.9 nM.

The term Kd denotes a measure of binding affinity in units of concentration.
